# Source: patent US20040122209A1, “Products for regulating the degradation of collagen and methods for identifying same” (Shriners Hospital For Children, priority 2002, published 2004)
# No end group written: not given here.
# Tests used:
# Format in all cases: cell-based
# MMP-1 = test: ELISA for MMP-1 in conditioned medium of human chondrocytes; details: 48 hours; CB12-II 50 μM, TNF-α 50 ng/ml
# Procedure: (§1) First-passaged normal human chondrocytes isolated by the method described above and cultured at high density (2×10^5 cells/cm^2) were trypsinized and resuspended in Medium A containing 1% FCS at a density of 10^6 cells/ml. Then, 200 μl of the cell suspension was each plated onto round-bottomed 96-well culture plate. On the next day after plating, CB12-II at 50 μM, USP at 50 μM, and TNF-α at 50 ng/ml were added to the culture media, and the culture was maintained for 24-48 hours. Conditioned media were collected and subjected to ELISA assay. The ELISA kits (BIOTRAK) for MMP-1 and MMP-13 were purchased from Amersham Pharmacia Biotech (Piscataway, N.J.). Measurement range was 6.25-100 ng/ml for MMP-1 and 0.094-3 ng/ml for MMP-13. Sensitivity for the assay was 1.7 ng/ml for MMP-1 and 0.7 ng/ml for MMP-13.
# (§2) Protein levels of MMP-1 and MMP-13 were also tested by incubating isolated human chondrocytes for 48 hours in high density culture (10^6 cells/ml) with CB12-II, negative control peptide USP, or cytokine TNF-α, as discussed above. MMP-1 and MMP-13 secretion into medium from the cells was measured using ELISA (see FIGS. 9A and 9B).
# MMP-13 = test: ELISA for MMP-13 in conditioned medium of human chondrocytes; details: 48 hours; CB12-II 50 μM, TNF-α 50 ng/ml
# Procedure: as §1, §2
# [1] = test system: bovine articular cartilage explant; test: Collagenase-cleaved type II collagen (COL2-3/4C) in bovine articular cartilage explant culture; details: 1 and 10 μM, time- and dose-dependent
# Procedure: (§3) The cartilages were prepared as previously described (Dahlberg, L. et al. (2000) supra. In brief, the cartilage samples were washed three times with basal culture medium containing Dulbecco's modified Eagle's medium (DMEM; Gibco BRL, Life Technologies, Grand Island, N.Y.) with 20 mM HEAPS buffer (pH 7.4) (Gibco BRL), 45 mM NaHCO3, 100 units/ml penicillin, 100 μg/ml streptomycin and 150 μg/ml gentamycin sulphate (Medium A). Full-depth cartilage slices from a single area, around 20 mm×20 mm were cut vertical to the articular surface and then into cubes of approximately 2 mm×2 mm (5-7 cubes were randomly obtained and wet weights about 50-70 mg/well determined).
# (§4) The cartilage was assigned to 48 well plate (ca 40 mg/well) and kept in Medium A supplemented with 50 μg/ml ascorbic acid, 0.1 mg/bovine serum albumin, 50 μg/ml insulin, 5.0 μg/ml and 5.0 μg/ml sodium DMEM alone at 37° C. in 95% air/5% CO2. The cartilage was precultured for 2 days and medium was changed at day 0. Thereafter medium (as described in pellet cultures) was replaced every four days. Various CNBr fragments and/or synthetic peptides were freshly added from day 0 at each medium change. Thereafter, cartilage explants and conditioned media were harvested and stored at −20° C.
# (§5) The cell pellets and cartilage explant cultured for various times were digested for the extraction of collagenase-generated neoepitope COL2-3/4Cshort (Billinghurst, R. C. et al., (1997) supra) and denatured type II collagen epitope COL2-3/4m and total type II collagen (Hollander, A. P. et al. (1994a) supra), as previously described: Briefly, the harvested pellets were incubated overnight with 1.0 mg/ml α-chymotrypsin at 37° C. to cleave and solubilize denatured collagen leaving the above neoepitope and epitope intact. After inhibition of α-chymotrypsin activity with N-tosyl-L-phenelalanine-chloromethyl ketone (Sigma), the samples were centrifuged and the supernatants were removed and boiled for 10 min. The COL2-3/4Cshort epitope (hereafter referred to as COL2-3/4Cshort) generated by cleavage of type II collagen by collagenase (Billinghurst, R. C. et al. (1997) supra) and intrachain epitope (COL2-3/4m) exposed in denatured type II collagen (Hollander, A. P. et al. (1994a) supra) were measured in α-chymotrypsin extracts by immunoassay. The COL2-3/4Cshort epitope is detected in an ELISA assay using a rabbit antibody to the carboxyterminal cleavage neoepitope on the TCA piece generated by primary collagenase cleavage of type II collagen. The release of the COL2-3/4C epitope into media was also measured by immunoassay. Total contents in tissue/cells and media was recorded for COL2-3/^4Cshort epitope. The COL2-3/4m epitope was recorded in cells and tissue where it was concentrated. The remaining residues of pellets and explants were digested overnight with 1.0 mg/ml proteinase K at 56° C. to extract the remaining intact type II collagen and then boiled for 10 min to denature the enzyme. Total type II collagen content in the pellets and explant was determined from the collective amount of COL2-3/4m in both the α-chymotrypsin and proteinase K digests.
# [2] = test system: bovine articular cartilage explant; test: Proteoglycan (GAG) content and release in bovine explant culture; details: subpeptides at 1 and 10 μM
# Procedure: The cartilages were prepared as previously described (Dahlberg, L. et al. (2000) supra. In brief, the cartilage samples were washed three times with basal culture medium containing Dulbecco's modified Eagle's medium (DMEM; Gibco BRL, Life Technologies, Grand Island, N.Y.) with 20 mM HEAPS buffer (pH 7.4) (Gibco BRL), 45 mM NaHCO3, 100 units/ml penicillin, 100 μg/ml streptomycin and 150 μg/ml gentamycin sulphate (Medium A). Full-depth cartilage slices from a single area, around 20 mm×20 mm were cut vertical to the articular surface and then into cubes of approximately 2 mm×2 mm (5-7 cubes were randomly obtained and wet weights about 50-70 mg/well determined). The cartilage was assigned to 48 well plate (ca 40 mg/well) and kept in Medium A supplemented with 50 μg/ml ascorbic acid, 0.1 mg/bovine serum albumin, 50 μg/ml insulin, 5.0 μg/ml and 5.0 μg/ml sodium DMEM alone at 37° C. in 95% air/5% CO2. The cartilage was precultured for 2 days and medium was changed at day 0. Thereafter medium (as described in pellet cultures) was replaced every four days. Various CNBr fragments and/or synthetic peptides were freshly added from day 0 at each medium change. Thereafter, cartilage explants and conditioned media were harvested and stored at −20° C. In order to show the specificity of the peptide fragments of one embodiment on degradation of type II collagen as compared with proteoglycan, primarily aggrecan, sulphated glycosaminoglycan (GAG) content was determined in both the α-chymotrypsin and proteinase K digests for total proteoglycan (predominantly aggrecan) content in cell pellets, cartilage explants and also in conditioned media. Measurement of release of proteoglycan into media was tested using dimethylene blue dye binding as previously described (Dahlberg, L. et al. (2000) supra).
# ERK1/2 = test: Western immunoblot for phosphorylated ERK1/2 in human chondrocytes; details: at 15 min; inhibitors added before peptide
# Procedure: To detect activation of MAP kinases (ERK1/2, p38 MAPK, and JNK1/2), first-passaged chondrocytes plated onto 10-cm culture dishes were incubated with CB12-II (SP), USP, TNF-α, native human type II collagen, human fibronectin, and antibodies to α2β1 and α5β1 for 5-60 min. In some experiments, chondrocytes were precultured with U0126 (inhibitor of phosphorylation of MEK1/2, up-stream kinase molecule of ERK1/2) at 1 μM for 1 h, SB203580 (inhibitor of phosphorylation of p38 MAPK) at 1 μM for 1 h, Herbimycin A (tyrosine kinase inhibitor) at 1 μg/ml for overnight, Wortmannin (PI3 kinase inhibitor) at 100 nM for 1 h, and Cytochalasin D (focal adhesion inhibitor) at 3 μM for 30 or 60 min before adding peptides.
# After a variable but designated incubation time, chondrocytes were washed twice with ice cold PBS and lysed in RIPA buffer (10 mM Tris/HCl, pH 7.4, 0.1% SDS, 1% NP-40, 0.1% sodium deoxycholate, 150 mM NaCl, 1 mM EDTA) containing freshly added proteinase and phosphatase inhibitors (1 mM PMSF, 10 μg/ml leupeptin, 1 μg/ml aprotinin, 1 mM Na3VO4, 1 mM NaF). Cell lysate was centrifuged and supernatant was collected. Protein concentration was determined using Bradford's method. Equal amounts of protein were separated on 10% SDS-polyacrylamide gels under reducing conditions and were electrotransferred to a nitrocellulose membrane (Bio-Rad). To block nonspecific binding, the membranes were incubated in PBS containing 5% non-fat milk overnight at 4° C. The membranes were then probed with rabbit antibodies against phosphorylated ERK1/2, p38, and JNK1/2 (New England BioLabs). Antibodies were diluted 1:1000 in PBS containing 0.5% non-fat milk and reacted with the membrane for 1 h at room temperature. Blots were washed with PBS containing 0.1% Tween-20 three times, and incubated for 1 h at room temperature with horseradish peroxidase (HRP)-conjugated goat anti-rabbit IgG (New England BioLabs) diluted 1:2000 with PBS-0.1% Tween 20 for ECL system (Amersham). Then, the membranes were washed with PBS-Tween, and the membranes were detected with the addition of a 1:1 dilution of the ECL detection reagents (Amersham) 1 and 2 for 1 min. The solution was removed, and the membranes were wrapped in plastic wrap and exposed to film for various amounts of time.
# First-passaged confluent human chondrocytes were treated with CB12-II (SP) (10 μM), USP (10 μM), anti-α2β1and α5β1 antibodies, anti-integrin α2β1 blocking antibody, and IL-1β or TNF-α. Cell lysates were immunoblotted using antibody that detects phosphorylated p-ERK1I/2 or p-MEK. In some experiments, U0126 at 10 μM, a specific inhibitor of an upstream molecule, MEK1/2, that activates ERK1/2, and SB203580 at 10 μM, that inhibits p38 MAPK activity, were added to the culture 1 h before peptides, antibodies, and cytokines. Herbimycin A, cytochalasin D, and wortmannin were also used as inhibitors.
# [3] = test system: normal human adult articular cartilage explants; test: Type II collagen cleavage by collagenase (COL2-3/4C) in human articular cartilage explant culture; details: by day 16
# Procedure: Human femoral chondylar cartilages were obtained at autopsy within 18 hours of death from adult persons with no known history of arthritis and no macroscopic signs of articular degeneration. None of the persons had diabetes or had received chemotherapy prior to autopsy. Adult bovine articular cartilage was obtained from adults/bovine steers and cows from metacarpalphalangeal joints obtained at the abbatoir immediately after slaughter. All cartilage specimens were removed immediately to the laboratory under sterile conditions.
# as §3, §4, §5
Compound,inhibition of phosphorylation of ERK1/2 induced by CB12-II (ERK1/2),effect of removal of hydroxylation at a single proline residue on activity of CB12-II (SP) [3],other results
TNF-α,,,MMP-1 secretion into medium versus no peptide and negative control peptide (USP) (MMP-1): significantly higher; MMP-13 secretion into medium versus no peptide and negative control peptide (USP) (MMP-13): significantly higher
"GEAGAPGVKGESGSPGQNGSPGPM (not fully specified) [CB12-IV, subpeptide of CB12; used as non-specific / negative control peptide (USP)]",,,induction of total collagenase cleavage of type II collagen by CB12 subpeptides [1]: less activity; proteoglycan breakdown [2]: no significant effect
"C=C1[C@@H](C)[C@H]2[C@H](Cc3ccccc3)NC(=O)[C@]23[C@H](OC(C)=O)/C=C/[C@@](C)(O)C(=O)[C@@H](C)C/C=C/[C@H]3[C@@H]1O [Cytochalasin D, reference compound]",inhibited,,
"C[S+]([O-])c1ccc(-c2nc(-c3ccncc3)c(-c3ccc(F)cc3)[nH]2)cc1 (stereo not shown) [SB203580, reference compound]",not,,
GERGPPGPQGARGFP*GTP*GLP*GVK [SP6],,no effect on activity,
"GPRGPPGPPGKPGDDGEAGKPGKSGERGPPG [CB12-I, subpeptide of the CB12 peptide of type II collagen]",,,induction of total collagenase cleavage of type II collagen by CB12 subpeptides [1]: less activity; proteoglycan breakdown [2]: no significant effect
"GLPGVKGHRGYPGLDGAKGEAGAPG [CB12-III, subpeptide of the CB12 peptide of type II collagen]",,,induction of total collagenase cleavage of type II collagen by CB12 subpeptides [1]: less activity; proteoglycan breakdown [2]: no significant effect
GERGPP*GPQGARGFP*GTPGLP*GVK [SP18],,reduced potency,
GERGPP*GPQGARGFP*GTP*GLPGVK [SP21],,no effect on activity,
"N#CC(=C(/N)Sc1ccccc1N)/C(C#N)=C(\N)Sc1ccccc1N [Peptide U0126, reference compound]",inhibited,,
"CO[C@H]1[C@@H](OC)C[C@H](C)[C@@H](OC)C2=CC(=O)C=C(NC(=O)/C(C)=C/C=C\[C@H](OC)[C@@H](OC(N)=O)/C(C)=C/[C@@H]1C)C2=O [Herbimycin A, reference compound]",inhibited,,
GERGPP*GPQGARGFPGTP*GLP*GVK [SP15],,reduced potency,
